The test system of the assay is MV-4-11 cells. Nature of the assay: Gene expression microarray analysis (Affymetrix PrimeView) and GSEA. The note with it: ProbeSet 11744854_x_at; LIST B. Also noted: RFU PODN (11730768_x_at) / Fold change /veh PODN (11730768_x_at) / RFU LINC00158 (11744669_a_at) / Fold change /veh LINC00158 (11744669_a_at) / RFU DUSP10 (11751237_a_at) / Fold change /veh DUSP10 (11751237_a_at) / RFU ID3 (11757404_x_at) / Fold change /veh ID3 (11757404_x_at) / RFU PLEKHG5 (11737974_s_at) / Fold change /veh PLEKHG5 (11737974_s_at) / RFU LRRC4B (11730491_at) / Fold change /veh LRRC4B (11730491_at) / RFU GIMAP4 (11747438_a_at) / Fold change /veh GIMAP4 (11747438_a_at) / RFU KRT8 (11758183_x_at) / Fold change /veh KRT8 (11758183_x_at) / RFU CNN1 (11734310_a_at) / Fold change /veh CNN1 (11734310_a_at) / RFU VPS37D (11726825_at) / Fold change /veh VPS37D (11726825_at) / RFU C10orf10 (11716522_x_at) / Fold change /veh C10orf10 (11716522_x_at) / RFU KIR2DL2 /// KIR2DL4 /// KIR2DL5A /// KIR2DL5B /// KIR2DS1 /// KIR2DS2 /// KIR2DS3 /// KIR2DS4 /// KIR3DL3 /// KIR3DL3 /// KIR3DS1 (11738374_at) / Fold change /veh KIR2DL2 /// KIR2DL4 /// KIR2DL5A /// KIR2DL5B /// KIR2DS1 /// KIR2DS2 /// KIR2DS3 /// KIR2DS4 /// KIR3DL3 /// KIR3DL3 /// KIR3DS1 (11738374_at) / RFU C1QL1 (11718748_at) / Fold change /veh C1QL1 (11718748_at) / RFU TMPRSS4 (11747572_a_at) / Fold change /veh TMPRSS4 (11747572_a_at) / RFU HAMP (11756126_x_at) / Fold change /veh HAMP (11756126_x_at) / RFU RNFT2 (11725882_a_at) / Fold change /veh RNFT2 (11725882_a_at) / RFU NR4A2 (11747474_a_at) / Fold change /veh NR4A2 (11747474_a_at) / RFU ABCC12 (11746883_a_at) / Fold change /veh ABCC12 (11746883_a_at) / RFU TMEM136 (11760407_x_at) / Fold change /veh TMEM136 (11760407_x_at) / RFU CLDN22 /// WWC2 (11732394_at) / Fold change /veh CLDN22 /// WWC2 (11732394_at) / RFU HLA-DPB1 (11760878_x_at) / Fold change /veh HLA-DPB1 (11760878_x_at) / RFU SPINT1 (11716480_a_at) / Fold change /veh SPINT1 (11716480_a_at) / RFU GAP43 (11754022_s_at) / Fold change /veh GAP43 (11754022_s_at) / RFU A4GNT (11735810_at) / Fold change /veh A4GNT (11735810_at) / RFU PRB3 (11715151_x_at) / Fold change /veh PRB3 (11715151_x_at) / RFU TUBB4B (11761932_at) / Fold change /veh TUBB4B (11761932_at) / RFU CAPN14 (11732068_a_at) / Fold change /veh CAPN14 (11732068_a_at) / RFU TMCC2 (11721928_a_at) / Fold change /veh TMCC2 (11721928_a_at) / RFU IRGQ (11745062_a_at) / Fold change /veh IRGQ (11745062_a_at) / RFU FAM174B (11720279_a_at) / Fold change /veh FAM174B (11720279_a_at) / RFU TMPRSS4 (11748680_a_at) / Fold change /veh TMPRSS4 (11748680_a_at) / RFU FAM212B (11763350_a_at) / Fold change /veh FAM212B (11763350_a_at) / RFU PLEKHG5 (11743358_a_at) / Fold change /veh PLEKHG5 (11743358_a_at) / RFU ZSCAN30 (11745921_a_at) / Fold change /veh ZSCAN30 (11745921_a_at) / RFU CMKLR1 (11741424_a_at) / Fold change /veh CMKLR1 (11741424_a_at) / RFU LOC101060620 /// MAPK8IP1 (11723275_at) / Fold change /veh LOC101060620 /// MAPK8IP1 (11723275_at) / RFU SPTSSB (11747773_x_at) / Fold change /veh SPTSSB (11747773_x_at) / RFU PRSS12 (11739890_at) / Fold change /veh PRSS12 (11739890_at) / RFU BIN1 (11741810_x_at) / Fold change /veh BIN1 (11741810_x_at) / RFU WNT11 (11732464_a_at) / Fold change /veh WNT11 (11732464_a_at) / RFU C10orf10 (11716521_a_at) / Fold change /veh C10orf10 (11716521_a_at) / RFU C5orf56 (11738089_at) / Fold change /veh C5orf56 (11738089_at) / RFU CYB561 (11721691_x_at) / Fold change /veh CYB561 (11721691_x_at) / RFU ANKRD19P (11752326_a_at) / Fold change /veh ANKRD19P (11752326_a_at) / RFU OR2T12 /// OR2T33 /// OR2T8 (11738714_s_at) / Fold change /veh OR2T12 /// OR2T33 /// OR2T8 (11738714_s_at) / RFU VCAN (11748164_a_at) / Fold change /veh VCAN (11748164_a_at) / RFU JSRP1 (11732532_at) / Fold change /veh JSRP1 (11732532_at) / RFU KRTAP10-11 (11738290_x_at) / Fold change /veh KRTAP10-11 (11738290_x_at) / RFU MYO3A (11730013_a_at) / Fold change /veh MYO3A (11730013_a_at) / RFU EBF3 (11725865_a_at) / Fold change /veh EBF3 (11725865_a_at) / RFU CAMK2N1 (11719241_x_at) / Fold change /veh CAMK2N1 (11719241_x_at) / RFU C5orf56 (11738088_a_at) / Fold change /veh C5orf56 (11738088_a_at) / RFU OLFML3 (11715873_a_at) / Fold change /veh OLFML3 (11715873_a_at) / RFU LOC100653217 /// NTM (11731650_a_at) / Fold change /veh LOC100653217 /// NTM (11731650_a_at) / RFU MAPK11 (11762145_a_at) / Fold change /veh MAPK11 (11762145_a_at) / RFU FIZ1 (11724087_x_at) / Fold change /veh FIZ1 (11724087_x_at) / RFU OASL (11726364_x_at) / Fold change /veh OASL (11726364_x_at) / RFU SOX15 (11748057_x_at) / Fold change /veh SOX15 (11748057_x_at) / RFU CD79A (11719716_a_at) / Fold change /veh CD79A (11719716_a_at) / RFU HIST1H1D (11736915_at) / Fold change /veh HIST1H1D (11736915_at) / RFU CASKIN2 (11723855_a_at) / Fold change /veh CASKIN2 (11723855_a_at) / RFU LOC730098 (11760151_x_at) / Fold change /veh LOC730098 (11760151_x_at) / RFU OR4N2 (11742367_at) / Fold change /veh OR4N2 (11742367_at) / RFU PRRT2 (11749266_a_at) / Fold change /veh PRRT2 (11749266_a_at) / RFU SNX32 (11753110_a_at) / Fold change /veh SNX32 (11753110_a_at) / RFU CDHR5 (11726645_a_at) / Fold change /veh CDHR5 (11726645_a_at) / RFU RCAN1 (11760418_a_at) / Fold change /veh RCAN1 (11760418_a_at) / RFU FAM167A (11723789_a_at) / Fold change /veh FAM167A (11723789_a_at) / RFU FAM26E (11764081_at) / Fold change /veh FAM26E (11764081_at) / RFU ISYNA1 (11749810_s_at) / Fold change /veh ISYNA1 (11749810_s_at) / RFU ACY1 (11761880_at) / Fold change /veh ACY1 (11761880_at) / RFU 11764098_at / Fold change /veh 11764098_at / RFU SAMD14 (11745864_x_at) / Fold change /veh SAMD14 (11745864_x_at) / RFU NPB (11741838_a_at) / Fold change /veh NPB (11741838_a_at) / RFU TMPRSS6 (11731388_a_at) / Fold change /veh TMPRSS6 (11731388_a_at) / RFU KRTAP10-2 (11738614_at) / Fold change /veh KRTAP10-2 (11738614_at) / RFU ARHGAP8 /// PRR5-ARHGAP8 (11727945_x_at) / Fold change /veh ARHGAP8 /// PRR5-ARHGAP8 (11727945_x_at) / RFU KRTAP5-7 /// NADSYN1 (11734609_at) / Fold change /veh KRTAP5-7 /// NADSYN1 (11734609_at) / RFU RASL12 (11751679_a_at) / Fold change /veh RASL12 (11751679_a_at) / RFU CDKN2B (11736163_a_at) / Fold change /veh CDKN2B (11736163_a_at) / RFU PRF1 (11729649_at) / Fold change /veh PRF1 (11729649_at) / RFU, ZNF638 /// ZNF638-IT1 / Fold change vs veh, ZNF638 /// ZNF638-IT1 / RFU, PANK3 / Fold change vs veh, PANK3 / RFU, SH3YL1 / Fold change vs veh, SH3YL1 / RFU, ZEB2 / Fold change vs veh, ZEB2 / RFU, NRIP1 / Fold change vs veh, NRIP1 / RFU, PTTG1IP / Fold change vs veh, PTTG1IP / RFU, CAPN2 / Fold change vs veh, CAPN2 / RFU, MED14 / Fold change vs veh, MED14 / RFU, SNORA58 / Fold change vs veh, SNORA58 / RFU, C1orf63 / Fold change vs veh, C1orf63 / RFU, LRRFIP1 / Fold change vs veh, LRRFIP1 / RFU, NDUFAF7 / Fold change vs veh, NDUFAF7 / RFU, SLC12A2 / Fold change vs veh, SLC12A2 / RFU, IBTK / Fold change vs veh, IBTK / RFU, ESF1 / Fold change vs veh, ESF1 / Fold change vs veh, TMEM50B / RFU, TAOK1 / Fold change vs veh, TAOK1 / RFU, ACBD3 / Fold change vs veh, ACBD3 / RFU, TMA16 / Fold change vs veh, TMA16 / RFU, RWDD3 / Fold change vs veh, RWDD3 / RFU, BCAT1 / Fold change vs veh, BCAT1 / RFU, EDEM3 / Fold change vs veh, EDEM3 / RFU, TMEM33 / Fold change vs veh, TMEM33 / RFU, WDR75 / Fold change vs veh, WDR75 / RFU, AHCTF1 / Fold change vs veh, AHCTF1 / RFU, TFRC / Fold change vs veh, TFRC / RFU, ZDHHC17 / Fold change vs veh, ZDHHC17 / RFU, NOM1 / Fold change vs veh, NOM1 / RFU, ARL8B / Fold change vs veh, ARL8B / RFU, ZBTB11 / Fold change vs veh, ZBTB11 / RFU, TAMM41 / Fold change vs veh, TAMM41 / RFU, KIAA1704 /// LOC100996395 / Fold change vs veh, KIAA1704 /// LOC100996395 / RFU, ING1 / Fold change vs veh, ING1 / RFU, TRMT61B / Fold change vs veh, TRMT61B / RFU, FUBP3 / Fold change vs veh, FUBP3 / RFU, TP53 / Fold change vs veh, TP53 / RFU, TNKS2 / Fold change vs veh, TNKS2 / RFU, ZFP14 / Fold change vs veh, ZFP14 / RFU, ACTR2 / Fold change vs veh, ACTR2 / RFU, PPP3R1 / Fold change vs veh, PPP3R1 / RFU, PIK3R1 / Fold change vs veh, PIK3R1 / RFU, HNRNPA1 / Fold change vs veh, HNRNPA1 / RFU, RNF170 / Fold change vs veh, RNF170 / RFU, ZNF28 / Fold change vs veh, ZNF28 / RFU, RNGTT / Fold change vs veh, RNGTT / RFU, OGT / Fold change vs veh, OGT / RFU, BRD1 / Fold change vs veh, BRD1 / RFU, MARS / Fold change vs veh, MARS / RFU, ZNF655 / Fold change vs veh, ZNF655 / RFU, FAHD1 / Fold change vs veh, FAHD1 / RFU, BDP1 / Fold change vs veh, BDP1 / RFU, LRRCC1 / Fold change vs veh, LRRCC1 / RFU, ARID1A / Fold change vs veh, ARID1A / RFU, ZNF146 / Fold change vs veh, ZNF146 / RFU, ZNF330 / Fold change vs veh, ZNF330 / RFU, GPN3 / Fold change vs veh, GPN3 / RFU, C9orf123 / Fold change vs veh, C9orf123 / RFU, N4BP2L2 / Fold change vs veh, N4BP2L2 / RFU, ARFIP1 / Fold change vs veh, ARFIP1 / RFU, FAM179B / Fold change vs veh, FAM179B / RFU, BCL10 / Fold change vs veh, BCL10 / RFU, UHRF1BP1L / Fold change vs veh, UHRF1BP1L / RFU, BET1 / Fold change vs veh, BET1 / RFU, CNOT2 / Fold change vs veh, CNOT2 / RFU, ZNF268 / Fold change vs veh, ZNF268 / Fold change vs veh, ZNF507 / RFU, DGCR2 / Fold change vs veh, DGCR2 / RFU, WDSUB1 / Fold change vs veh, WDSUB1 / Fold change vs veh, HSP90B1 /// MIR3652 / RFU, ADSS / Fold change vs veh, ADSS / RFU, GK / Fold change vs veh, GK / RFU, ZNF148 / Fold change vs veh, ZNF148 / RFU, TAF9 / Fold change vs veh, TAF9 / RFU, SLC1A5 / Fold change vs veh, SLC1A5 / RFU, SLMO2 / Fold change vs veh, SLMO2 / RFU, ABCC4 / Fold change vs veh, ABCC4 / RFU, LOC101060439 /// RAP1B / Fold change vs veh, LOC101060439 /// RAP1B / RFU, RFX7 / Fold change vs veh, RFX7 / RFU, GTPBP10 / Fold change vs veh, GTPBP10 / RFU, CNEP1R1 / Fold change vs veh, CNEP1R1 / RFU, BIVM-ERCC5 /// ERCC5 / Fold change vs veh, BIVM-ERCC5 /// ERCC5 / RFU, ILF3 / Fold change vs veh, ILF3 / RFU 11762660_at / Fold change /veh 11762660_at / RFU VCAN (11757783_s_at) / Fold change /veh VCAN (11757783_s_at) / RFU DDX43 (11728927_at) / Fold change /veh DDX43 (11728927_at) / RFU KRT8 (11758188_x_at) / Fold change /veh KRT8 (11758188_x_at) / RFU NKD1 (11759106_at) / Fold change /veh NKD1 (11759106_at) / RFU SRD5A1 (11742802_a_at) / Fold change /veh SRD5A1 (11742802_a_at) / RFU TPSAB1 /// TPSB2 (11721975_s_at) / Fold change /veh TPSAB1 /// TPSB2 (11721975_s_at) / RFU GSTM3 (11746129_a_at) / Fold change /veh GSTM3 (11746129_a_at) / RFU IL23R (11737362_x_at) / Fold change /veh IL23R (11737362_x_at) / RFU TMEM51 (11727254_a_at) / Fold change /veh TMEM51 (11727254_a_at) / RFU PIWIL2 (11732686_x_at) / Fold change /veh PIWIL2 (11732686_x_at) / RFU ORM1 (11744905_x_at) / Fold change /veh ORM1 (11744905_x_at) / RFU CCDC152 (11743942_at) / Fold change /veh CCDC152 (11743942_at) / RFU ECM1 (11717891_a_at) / Fold change /veh ECM1 (11717891_a_at) / RFU IL23R (11748794_a_at) / Fold change /veh IL23R (11748794_a_at) / RFU TNFAIP8L3 (11732012_x_at) / Fold change /veh TNFAIP8L3 (11732012_x_at) / RFU MBOAT4 (11741988_at) / Fold change /veh MBOAT4 (11741988_at) / RFU 11764193_at / Fold change /veh 11764193_at / RFU TMEM53 (11763286_at) / Fold change /veh TMEM53 (11763286_at) / RFU MAGEB2 (11727129_at) / Fold change /veh MAGEB2 (11727129_at) / RFU TMEM200A (11744735_a_at) / Fold change /veh TMEM200A (11744735_a_at) / RFU CCDC152 (11751479_a_at) / Fold change /veh CCDC152 (11751479_a_at) / RFU FAM211A (11726209_a_at) / Fold change /veh FAM211A (11726209_a_at) / RFU RGS16 (11746705_a_at) / Fold change /veh RGS16 (11746705_a_at) / RFU VCAN (11755009_s_at) / Fold change /veh VCAN (11755009_s_at) / RFU RHOB (11743442_s_at) / Fold change /veh RHOB (11743442_s_at) / RFU RGS16 (11720943_a_at) / Fold change /veh RGS16 (11720943_a_at) / RFU RGS16 (11720944_at) / Fold change /veh RGS16 (11720944_at) / RFU, VPS4B / Fold change vs veh, VPS4B / RFU, CREB1 / Fold change vs veh, CREB1 / RFU, DNAJC13 / Fold change vs veh, DNAJC13 / RFU, GNAQ / Fold change vs veh, GNAQ / RFU, CDK5R1 / Fold change vs veh, CDK5R1 / RFU, ZRANB3 / Fold change vs veh, ZRANB3 / RFU, CUL4A / Fold change vs veh, CUL4A / RFU, CCNY / Fold change vs veh, CCNY / RFU, UFL1 / Fold change vs veh, UFL1 / RFU, COG3 / Fold change vs veh, COG3 / RFU, DIAPH2 / Fold change vs veh, DIAPH2 / RFU, SKA2 / Fold change vs veh, SKA2 / RFU, AFF3 / Fold change vs veh, AFF3 / RFU, LMF1 / Fold change vs veh, LMF1 / RFU, IPO11 / Fold change vs veh, IPO11 / RFU, DFFB / Fold change vs veh, DFFB / RFU, FOXP1 / Fold change vs veh, FOXP1 / RFU, CARD8 / Fold change vs veh, CARD8 / RFU, STRN3 / Fold change vs veh, STRN3 / RFU, ADK / Fold change vs veh, ADK / RFU, RASSF2 / Fold change vs veh, RASSF2 / RFU, WIPF1 / Fold change vs veh, WIPF1 / RFU, LARP1B / Fold change vs veh, LARP1B / RFU, RASA1 / Fold change vs veh, RASA1 / RFU, RB1 / Fold change vs veh, RB1 / RFU, PPFIA1 / Fold change vs veh, PPFIA1 / RFU, MAT2A / Fold change vs veh, MAT2A / RFU, CCT5 / Fold change vs veh, CCT5 / RFU, WDR92 / Fold change vs veh, WDR92 / RFU, CUX1 / Fold change vs veh, CUX1 / RFU, TTC7A / Fold change vs veh, TTC7A / RFU, TMEM135 / Fold change vs veh, TMEM135 / RFU, DEPTOR / Fold change vs veh, DEPTOR / RFU, CPM / Fold change vs veh, CPM / RFU, DNAJB6 / Fold change vs veh, DNAJB6 / RFU, CACNA2D3 / Fold change vs veh, CACNA2D3 / RFU, DTX4 / Fold change vs veh, DTX4 / RFU, TFCP2 / Fold change vs veh, TFCP2 / RFU, GMCL1 /// GMCL1P1 / Fold change vs veh, GMCL1 /// GMCL1P1 / RFU, AEBP2 / Fold change vs veh, AEBP2 / RFU, SNHG1 /// SNORD22 /// SNORD25 /// SNORD26 /// SNORD27 /// SNORD28 /// SNORD29 /// SNORD31 / Fold change vs veh, SNHG1 /// SNORD22 /// SNORD25 /// SNORD26 /// SNORD27 /// SNORD28 /// SNORD29 /// SNORD31 / Fold change (Aza/veh), C12orf56 (ProbeSet 11735607_a_at) / Fold change (ACY-1035/veh), C12orf56 (ProbeSet 11735607_a_at) / Fold change (Aza/veh), FGFR1OP (ProbeSet 11751329_s_at) / Fold change (ACY-1035/veh), FGFR1OP (ProbeSet 11751329_s_at) / Fold change (Aza/veh), VPS36 (ProbeSet 11739960_a_at) / Fold change (ACY-1035/veh), VPS36 (ProbeSet 11739960_a_at) / RFU SYPL1 (11715823_x_at) / Fold change /veh SYPL1 (11715823_x_at) / RFU IGFBP7 (11715501_s_at) / Fold change /veh IGFBP7 (11715501_s_at) / RFU REEP3 (11722064_at) / Fold change /veh REEP3 (11722064_at) / RFU IGLL1 (11728026_x_at) / Fold change /veh IGLL1 (11728026_x_at): dose or concentration left out as unconfirmed. It is filed as cell-based, human.

The record followed here is paper PMC5218480 (PLoS ONE, 2017).

Turning to `Nc1ncn([C@@H]2O[C@H](CO)[C@@H](O)[C@H]2O)c(=O)n1` [azacitidine], the “Fold change vs veh, ZNF28” value is 0.91.
